Source: publication PMC11823609, “Advancements in the fight against globally distributed OXA-48 carbapenemase: evaluating the new generation of carbapenemase inhibitors” (Antimicrobial Agents and Chemotherapy, 2025)
Values after ≈ are worked out from the molar mass of the structure shown.

Legend:
[1] = system: O=C(Cc1cccs1)N[C@@H]1C(=O)N2C(C(=O)O)=C(/C=C/c3ccc([N+](=O)[O-])cc3[N+](=O)[O-])CS[C@H]12; experiment: purified protein, by the assay type; settings: other: substrate hydrolysis by OXA-48; pH 7.4; 25.0 °C
[2] = system: E. coli strain 224 (MLST 127, No ESBL); experiment: microbe, parasite or virus in culture; format: cell-based; settings: Escherichia coli; E. coli 224; β-lactamase inhibitor alone; read-out: MIC
Experimental: (§1) The efficacy of these new BLIs was also evaluated against 18 genetically diverse WGS-characterized collection of OXA-48-positive Enterobacterales recovered as part of the Carbapenem-resistant Enterobacterales Genome Database Project (https://genomes.cnag.cat/incredble) listed in Table S2 ([13]). Combinations of clinical isolates (five pairs of Klebsiella pneumoniae, two pairs of Enterobacter cloacae, and two pairs of E. coli) were chosen for analysis: (i) nine strains carrying ESBLs; and (ii) nine strains (genetically closer available strains) without ESBLs.
(§2) The MICs of each of the individual compounds (antibiotics or inhibitors) were also determined. The MICs were determined for the E. coli isogenic expressing OXA-48 (and both OXA-48 and CTX-M-14) to assess their activity against the carbapenemase; MICs were also determined for the 18 Enterobacterales clinical isolates in order to evaluate the new inhibitors against also their resistance concomitant mechanisms. The MICs were determined in triplicate experiments, and the EUCAST 13.0 clinical breakpoints were followed (http://www.eucast.org/clinical_breakpoints).
(§3) For comparative evaluation of the activity of each inhibitor alone against the carbapenemase OXA-48, all inhibitors (at 4 mg/L) were tested in the presence of a carbapenem (ertapenem, adequate substrate) and a cephalosporin (ceftazidime, poor substrate) as reporter substrates. This prevented any possible masking effect produced by the different partner antibiotics. These assays were also performed with isogenic transformants and clinical isolates.

[3] = system: K. pneumoniae strain 170 (MLST 307, No ESBL); experiment: microbe, parasite or virus in culture; format: cell-based; settings: Klebsiella pneumoniae; K. pneumoniae 170; β-lactamase inhibitor alone; read-out: MIC
Experimental: as §1, §2, §3

[4] = system: E. coli strain 177 (MLST 131, ESBL); experiment: microbe, parasite or virus in culture; format: cell-based; settings: Escherichia coli
Experimental: as §1, §2, §3

[5] = system: K. pneumoniae strain 125 (MLST 307, ESBL); experiment: microbe, parasite or virus in culture; format: cell-based; settings: Klebsiella pneumoniae
Experimental: as §1, §2, §3

[6] = system: K. pneumoniae strain 71 (MLST 15, No ESBL); experiment: microbe, parasite or virus in culture; format: cell-based; settings: Klebsiella pneumoniae; K. pneumoniae 71; β-lactamase inhibitor alone; read-out: MIC
Experimental: as §1, §2, §3

[7] = system: K. pneumoniae strain 23 (MLST 392, ESBL); experiment: microbe, parasite or virus in culture; format: cell-based; settings: Klebsiella pneumoniae
Experimental: as §1, §2, §3

[8] = system: K. pneumoniae strain 194 (MLST 392, No ESBL); experiment: microbe, parasite or virus in culture; format: cell-based; settings: Klebsiella pneumoniae; K. pneumoniae 194; β-lactamase inhibitor alone; read-out: MIC
Experimental: as §1, §2, §3

[9] = system: K. pneumoniae strain 19 (MLST 11, ESBL); experiment: microbe, parasite or virus in culture; format: cell-based; settings: Klebsiella pneumoniae
Experimental: as §1, §2, §3

[10] = system: E. cloacae strain 281 (MLST 78, No ESBL); experiment: microbe, parasite or virus in culture; format: cell-based; settings: Enterobacter cloacae; E. cloacae 281; β-lactamase inhibitor alone; read-out: MIC
Experimental: as §1, §2, §3

[11] = system: E. coli strain 103 (MLST 10, ESBL); experiment: microbe, parasite or virus in culture; format: cell-based; settings: Escherichia coli
Experimental: as §1, §2, §3

[12] = system: E. cloacae strain 272 (MLST 78, ESBL); experiment: microbe, parasite or virus in culture; format: cell-based; settings: Enterobacter cloacae
Experimental: as §1, §2, §3

[13] = system: K. pneumoniae strain 413 (MLST 147, ESBL); experiment: microbe, parasite or virus in culture; format: cell-based; settings: Klebsiella pneumoniae
Experimental: as §1, §2, §3

[14] = system: E. cloacae strain 231 (MLST 171, No ESBL); experiment: microbe, parasite or virus in culture; format: cell-based; settings: Enterobacter cloacae; E. cloacae 231; β-lactamase inhibitor alone; read-out: MIC
Experimental: as §1, §2, §3

[15] = system: K. pneumoniae strain 237 (MLST 147, No ESBL); experiment: microbe, parasite or virus in culture; format: cell-based; settings: Klebsiella pneumoniae; K. pneumoniae 237; β-lactamase inhibitor alone; read-out: MIC
Experimental: as §1, §2, §3

[16] = system: K. pneumoniae strain 238 (MLST 15, ESBL); experiment: microbe, parasite or virus in culture; format: cell-based; settings: Klebsiella pneumoniae
Experimental: as §1, §2, §3

[17] = system: E. coli strain 264 (MLST 131, No ESBL); experiment: microbe, parasite or virus in culture; format: cell-based; settings: Escherichia coli; E. coli 264; β-lactamase inhibitor alone; read-out: MIC
Experimental: as §1, §2, §3

[18] = system: K. pneumoniae strain 497 (MLST 11, No ESBL); experiment: microbe, parasite or virus in culture; format: cell-based; settings: Klebsiella pneumoniae; K. pneumoniae 497; β-lactamase inhibitor alone; read-out: MIC
Experimental: as §1, §2, §3

[19] = system: E. cloacae strain 235 (MLST 171, ESBL); experiment: microbe, parasite or virus in culture; format: cell-based; settings: Enterobacter cloacae
Experimental: as §1, §2, §3

[20] = system: E. coli TG1 (OXA-48); experiment: microbe, parasite or virus in culture; format: cell-based, Escherichia coli; settings: Escherichia coli
Experimental: as §2, §3

[21] = system: E. coli TG1 and HB4 transformants; experiment: MIC summary over E. coli transformants; format: cell-based, Escherichia coli
Source text: (§4) The E. coli HB4 strain was used to gain a more complete perspective, by evaluating the involvement in resistance of a low permeability background with the carbapenemase OXA-48, as well as coproduction of an ESBL and the carbapenemase; thus, the ESBL CTX-M-14 and OXA-48 were cloned together and separately into E. coli HB4. The characteristics of these strains and transformants are summarized in Table S1, and the cloning procedures are outlined in the supplemental methods.
as §2, §3

[22] = system: E. coli HB4 ΔompC/F (CTX-M-14 + OXA-48); experiment: microbe, parasite or virus in culture; format: cell-based, Escherichia coli; settings: for MIC: Escherichia coli
Source text: as §4, §2, §3

[23] = system: E. coli HB4 ΔompC/F; experiment: microbe, parasite or virus in culture; format: cell-based, Escherichia coli; settings: Escherichia coli
Source text: as §4, §2, §3

[24] = system: E. coli HB4 ΔompC/F (CTX-M-14); experiment: microbe, parasite or virus in culture; format: cell-based, Escherichia coli; settings: Escherichia coli
Source text: as §4, §2, §3

[25] = system: E. coli HB4 ΔompC/F (OXA-48); experiment: microbe, parasite or virus in culture; format: cell-based, Escherichia coli; settings: Escherichia coli
Source text: as §4, §2, §3

[26] = system: E. coli TG1; experiment: microbe, parasite or virus in culture; format: cell-based; settings: Escherichia coli, β-lactamase inhibitor alone
Experimental: as §2, §3

[27] = biological target: OXA-48 (Klebsiella pneumoniae, UniProt Q6XEC0); settings: ref 26 Lahiri et al.; cited from earlier work
Sequence of OXA-48 (Q6XEC0 23-265 limits assumed): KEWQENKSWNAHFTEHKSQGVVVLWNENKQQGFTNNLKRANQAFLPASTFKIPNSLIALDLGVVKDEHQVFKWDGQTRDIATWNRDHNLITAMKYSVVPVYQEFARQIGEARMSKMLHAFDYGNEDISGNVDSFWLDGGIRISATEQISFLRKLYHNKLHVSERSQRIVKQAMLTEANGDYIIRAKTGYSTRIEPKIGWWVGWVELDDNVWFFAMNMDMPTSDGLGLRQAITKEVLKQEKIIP

[28] = system: OXA-48-producing Enterobacterales clinical isolates; experiment: MIC summary over clinical isolates; format: cell-based; settings: clinical isolates
Experimental: as §1, §2, §3

[29] = OXA-48-producing E. coli hosts, BLI 4 mg/L

Molecule | MIC [2] | MIC [3] | MIC [4] | MIC [5] | MIC [6] | MIC [7] | MIC [8] | MIC [9] | MIC [10] | MIC [11] | MIC [12] | MIC [13] | MIC [14] | MIC [15] | MIC [16] | MIC [17] | MIC [18] | MIC [19] | MIC [20] | MIC [22] | further results
OXA-48 (Klebsiella pneumoniae) | – | – | – | – | – | – | – | – | – | – | – | – | – | – | – | – | – | – | – | – | Km [1]: 56.5 µM; kcat [1]: 171.4 s⁻¹; kcat/Km [1]: 3.05e+06 M⁻¹ s⁻¹
NC(=O)[C@@H]1CC[C@@H]2CN1C(=O)N2OS(=O)(=O)O [Avibactam, avibactam] | 16 µg/mL | 16 µg/mL | 32 µg/mL | 32 µg/mL | 32 µg/mL | 16 µg/mL | 16 µg/mL | ≥ 128 µg/mL | 16 µg/mL | 32 µg/mL | 32 µg/mL | 64 µg/mL | 8 µg/mL | 64 µg/mL | 32 µg/mL | 16 µg/mL | ≥ 128 µg/mL | 32 µg/mL | 4 µg/mL (≈ 15.1 µM) | 16 µg/mL (≈ 60.3 µM) | decrease of ertapenem MIC with BLI [21, 29]: 8–256 fold; decrease of ertapenem MIC with BLI ([22]; E. coli HB4 coproducing CTX-M-14 and OXA-48, BLI 4 mg/L): 256 fold; MIC [23]: 8 µg/mL (≈ 30.2 µM); MIC [24]: 16 µg/mL (≈ 60.3 µM); MIC [25]: 8 µg/mL (≈ 30.2 µM); MIC [26]: 4 µg/mL (≈ 15.1 µM); t1/2 [27]: 1,000 min
O=C(NNC(=O)[C@@H]1CC[C@@H]2CN1C(=O)N2OS(=O)(=O)O)[C@@H]1CCCNC1 [Zidebactam, zidebactam] | 0.25 µg/mL | 0.5 µg/mL | 0.5 µg/mL | ≥ 128 µg/mL | 0.5 µg/mL | 0.5 µg/mL | 0.5 µg/mL | ≥ 128 µg/mL | 0.25 µg/mL | 8 µg/mL | 0.5 µg/mL | ≥ 128 µg/mL | 0.25 µg/mL | 0.5 µg/mL | 0.25 µg/mL | 0.12 µg/mL | 32 µg/mL | 2 µg/mL | 0.12 µg/mL (≈ 0.307 µM) | 0.5 µg/mL (≈ 1.28 µM) | reduction of cefepime MICs by BLI [28]: 2–512 fold; effect of ertapenem/BLI on bacterial growth [21, 29]: totally inhibited bacterial growth; MICs of inhibitor alone (range over strains) ([21]; TG1 and HB4 E. coli): 0.12 to 2 mg/L; MIC [23]: 0.5 µg/mL (≈ 1.28 µM); MIC [24]: 0.5 µg/mL (≈ 1.28 µM); MIC [25]: 0.5 µg/mL (≈ 1.28 µM); MIC [26]: 0.12 µg/mL (≈ 0.307 µM)
